{"source": "patent US10441590B2", "about": "“Methods for treating pulmonary hypertension” (Reviva Pharmaceuticals, Inc., priority 2015, dated 2019)", "key": {"[1]": {"target": "Human recombinant D2S (Homo sapiens (Human), UniProt P14416)", "sequence (P14416 other isoform, or with tags, fused parts or gaps)": "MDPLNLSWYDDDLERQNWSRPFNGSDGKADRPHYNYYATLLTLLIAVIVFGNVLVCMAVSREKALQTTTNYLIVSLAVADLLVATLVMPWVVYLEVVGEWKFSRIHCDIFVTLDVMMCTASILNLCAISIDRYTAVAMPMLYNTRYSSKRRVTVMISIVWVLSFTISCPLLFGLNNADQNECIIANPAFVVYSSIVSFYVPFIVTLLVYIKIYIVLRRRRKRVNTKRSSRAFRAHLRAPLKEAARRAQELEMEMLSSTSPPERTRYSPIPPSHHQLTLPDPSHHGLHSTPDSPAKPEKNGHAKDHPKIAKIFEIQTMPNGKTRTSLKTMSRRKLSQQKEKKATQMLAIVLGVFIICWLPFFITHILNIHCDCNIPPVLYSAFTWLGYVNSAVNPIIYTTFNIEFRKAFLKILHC", "assay": "Dopamine D2S radioligand binding assay"}, "[2]": {"target": "Human recombinant 5-HT1A (Homo sapiens (Human), UniProt P08908)", "assay": "Serotonin 5HT1A radioligand binding assay"}, "[3]": {"target": "Human Cortex or Human recombinant 5-HT2A (Homo sapiens (Human), UniProt P28223)", "sequence (P28223 whole entry)": "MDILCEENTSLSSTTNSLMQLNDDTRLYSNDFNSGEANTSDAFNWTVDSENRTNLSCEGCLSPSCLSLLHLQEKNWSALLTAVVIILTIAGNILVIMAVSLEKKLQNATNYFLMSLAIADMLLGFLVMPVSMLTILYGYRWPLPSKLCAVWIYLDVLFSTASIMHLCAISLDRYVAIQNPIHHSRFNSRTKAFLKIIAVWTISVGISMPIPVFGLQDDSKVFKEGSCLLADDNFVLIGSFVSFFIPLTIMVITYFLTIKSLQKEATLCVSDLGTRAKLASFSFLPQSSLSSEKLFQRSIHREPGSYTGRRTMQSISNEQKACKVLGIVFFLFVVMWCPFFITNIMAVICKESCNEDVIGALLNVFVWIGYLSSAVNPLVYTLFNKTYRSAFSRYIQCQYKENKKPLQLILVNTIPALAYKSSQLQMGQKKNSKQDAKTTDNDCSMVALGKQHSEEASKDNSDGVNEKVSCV", "assay": "Serotonin 5HT2A radioligand binding assay"}, "[4]": {"target": "Human recombinant 5-HT2B (Homo sapiens (Human), UniProt P41595)", "sequence (P41595 whole entry)": "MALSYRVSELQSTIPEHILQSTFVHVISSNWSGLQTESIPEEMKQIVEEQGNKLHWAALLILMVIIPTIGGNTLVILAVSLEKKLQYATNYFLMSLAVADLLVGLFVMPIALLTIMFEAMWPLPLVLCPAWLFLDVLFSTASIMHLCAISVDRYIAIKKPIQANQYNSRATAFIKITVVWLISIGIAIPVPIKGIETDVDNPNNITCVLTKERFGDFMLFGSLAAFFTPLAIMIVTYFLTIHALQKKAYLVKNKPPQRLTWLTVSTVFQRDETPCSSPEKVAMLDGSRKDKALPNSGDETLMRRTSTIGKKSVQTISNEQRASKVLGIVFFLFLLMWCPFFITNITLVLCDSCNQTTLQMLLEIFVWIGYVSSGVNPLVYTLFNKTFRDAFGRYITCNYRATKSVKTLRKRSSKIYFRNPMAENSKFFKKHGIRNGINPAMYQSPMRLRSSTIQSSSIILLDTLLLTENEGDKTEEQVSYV", "assay": "Serotonin 5HT2B radioligand binding assay"}, "[5]": {"target": "Human recombinant 5-HT6 (Homo sapiens (Human), UniProt P50406)", "sequence (P50406 whole entry)": "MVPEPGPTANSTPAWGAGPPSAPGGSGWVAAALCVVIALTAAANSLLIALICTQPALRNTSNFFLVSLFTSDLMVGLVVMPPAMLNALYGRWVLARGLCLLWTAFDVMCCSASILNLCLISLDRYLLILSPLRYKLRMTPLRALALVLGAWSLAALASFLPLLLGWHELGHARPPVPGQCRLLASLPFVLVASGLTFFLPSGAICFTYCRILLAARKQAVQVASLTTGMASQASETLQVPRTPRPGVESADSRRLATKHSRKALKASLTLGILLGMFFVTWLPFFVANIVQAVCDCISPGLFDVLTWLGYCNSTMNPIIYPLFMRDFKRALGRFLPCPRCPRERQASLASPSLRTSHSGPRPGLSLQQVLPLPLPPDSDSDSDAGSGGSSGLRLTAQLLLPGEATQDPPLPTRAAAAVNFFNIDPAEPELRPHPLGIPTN", "assay": "Serotonin 5HT6 radioligand binding assay"}, "[6]": {"target": "Human recombinant 5-HT7 (Homo sapiens (Human), UniProt P34969)", "sequence (P34969 whole entry)": "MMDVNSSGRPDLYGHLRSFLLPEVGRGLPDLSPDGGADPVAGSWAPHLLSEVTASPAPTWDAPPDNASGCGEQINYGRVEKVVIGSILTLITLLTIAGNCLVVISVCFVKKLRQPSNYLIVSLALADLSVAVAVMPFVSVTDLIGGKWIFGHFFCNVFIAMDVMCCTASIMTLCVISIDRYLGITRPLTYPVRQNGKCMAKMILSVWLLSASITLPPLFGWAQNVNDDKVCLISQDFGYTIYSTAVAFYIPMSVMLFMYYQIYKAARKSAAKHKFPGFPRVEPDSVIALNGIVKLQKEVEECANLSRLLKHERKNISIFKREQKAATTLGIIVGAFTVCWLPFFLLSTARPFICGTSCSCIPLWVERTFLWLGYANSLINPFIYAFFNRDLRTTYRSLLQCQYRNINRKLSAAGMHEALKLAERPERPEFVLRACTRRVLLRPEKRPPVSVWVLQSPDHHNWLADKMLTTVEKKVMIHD", "assay": "Serotonin 5HT7 radioligand binding assay"}, "[7]": {"system": "monocrotaline-induced pulmonary arterial hypertension (PAH) in rats", "assay": "Monocrotaline (MCT) induced pulmonary arterial hypertension rat model", "type": "in vivo", "details": "for Body Weight gain / Diastolic pulmonary pressure / Lung weight / Mean pulmonary pressure / Oxygen saturation / Respiratory resistance / Right systolic ventricular pressure / Systolic pulmonary pressure: MCT rat, Day 0 to Day 27, Day 28", "text": "The purpose of this study was to assess the effect of the test articles on the monocrotaline-induced pulmonary arterial hypertension (PAH) in rats. The assay was designed to measure the pulmonary and systemic arterial blood pressures in anaesthetized rats with PAH induced by a single subcutaneous dose of monocrotaline. The results of the study are a quantitative measurement of the progression of the disease and its effects on the pulmonary arterial blood pressure (PAP), as well as wet organ weight in rats with induced PAH with and without treatment with test article or reference compound. Furthermore, a detailed morphometric and clinical investigation of the histology of the pulmonary vasculature was performed to correlate vascular remodeling with the functional impact of the onset of the PAH.\nMale Wistar-Kyoto rats (Charles River Laboratories) weighing between 200 and 250 grams (approximately 10-12 week-old) were randomized across experimental groups, according to their body weight, with the aim of scheduling one animal per treatment group for each day of terminal surgery (when possible). […] Rats from treatment groups 2 to 4 received one subcutaneous injection of monocrotaline (MCT) solution (60 mg/kg) in DMSO on Day 0 and were returned to their cages. Rats from control group 1 received one subcutaneous injection of DMSO (vehicle for monocrotaline) on Day 0 and were returned to their respective cages. […] Food and water were given ad libitum. Daily observations of the behavior and general health status of the animals were done. Weekly blood draw, body weight and body temperature were taken.\nOn the day of surgery, the rats were anaesthetized, instrumented and hemodynamic parameters (systemic arterial blood pressure, right ventricular blood pressure, pulmonary arterial blood pressure, oxygen saturation, respiratory resistance, ventilatory pressure, respiration rate and heart rate) were recorded continuously for 5 minutes or until loss of quality in the pulmonary arterial pressure signal, whichever came first. The recordings included moving the pressure transducer from the right ventricular cavity to the pulmonary artery and back, observing the very clear transitions in diastolic pressures and general pressure waveforms as the catheter entered the artery, and was withdrawn into the ventricle. The rats were then exsanguinated and the pulmonary circulation was flushed with 0.9% NaCl. The trachea, lungs and heart were removed as a whole from the thoracic cavity. The right and left lobes of the lung were weighed before being perfused with 10% NBF and immersed in 10% formalin. The lungs were stored in 10% formalin at room temperature. The heart was excised to measure the wet weights of the right ventricle (RV) and left ventricle including the septum (LV-S) as part of the Fulton index calculation. Arterial blood pressure was recorded continuously throughout the experiment via an intra-arterial fluid-filled catheter (AD Instruments, Colorado Springs, Colo., USA). Diastolic and systolic pressures values were measured in mmHg using cursors readings in the Clampfit 10.2.0.14. Mean arterial blood pressure values were calculated using the following formula:\n[formula] Values are presented as means±SEM (standard error of the means). Repeat unpaired Student's t-tests were performed in Microsoft Excel 2007 on all experimental conditions, comparing treatment groups to either the control, healthy animals, or the negative control animals (monocrotaline only). Differences were considered significant when p≤0.05. The study results are described in Table 2."}, "[8]": {"system": "Sugen-Hypoxia (SuHx) induced pulmonary arterial hypertension (PAH) in rats", "assay": "Sugen-hypoxia (SuHx) induced pulmonary arterial hypertension rat model", "type": "in vivo", "details": "for Body Weight gain / Diastolic pulmonary pressure / Lung weight / Mean pulmonary pressure / Oxygen saturation / Respiratory resistance / Right systolic ventricular pressure / Systolic pulmonary pressure: SuHx rat, Day 14 to Day 34, Day 35", "text": "The assay was designed to measure the pulmonary arterial blood pressures in anaesthetized rats with PAH induced by a single subcutaneous dose of Sugen combined with three weeks in hypoxia. Combined with a macroscopic and morphometric histological examination of the tissues harvested from the animals, the results of the provide a quantitative measurement of the progression of the disease on the systemic arterial blood pressure, pulmonary arterial blood pressure, as well as wet organ weight and vascular remodeling in rats with SuHx-induced PAH treated with test article, vehicle, or reference compound.\nMale Wistar-Kyoto rats (Charles River Laboratories) weighing between 200 and 250 grams (approximately 10-12 week-old) were randomized across experimental groups according to their body weight, with the aim of scheduling one rat per treatment group for each day of terminal surgery (when possible). […] Rats from Groups 2 to 4 (see Table 3) received a single subcutaneous injection of sugen (20 mg/kg) in DMSO on Day 0 and returned to their cages. Rats from Group 1 received one subcutaneous injection of DMSO (vehicle for sugen) on Day 0 and returned to their respective cages. Groups 2-4 were placed in cages for which the controlled air was adjusted to receive a FiO2 equivalent to 0.10 (10%) using a mixture of nitrogen and ambient air controlled by the ventilated cage system. They were kept under these hypoxic conditions for 21 days. While in hypoxia, cages were cleaned and changed every 48 hours, exposing the animals to ambient oxygen levels for less than 5 minutes per cleaning session. The animals were then exposed to ambient oxygen levels from Day 22 to Day 35. Group 1 animals remained in cages exposed to ambient oxygen levels for 35 days. The animals were observed on a daily basis for any changes in their behavior and general health status. […] Food and water were given ad libitum. Daily observation of the behavior and general health status of the animals was done. Weekly blood draws and body weights were taken. On the day of surgery, the rats were anaesthetized, instrumented and hemodynamic parameters (systemic arterial blood pressure, right ventricular blood pressure, pulmonary arterial blood pressure, oxygen saturation, respiratory resistance, ventilatory pressure, respiration rate and heart rate) were recorded continuously for 5 minutes or until loss of quality in the pulmonary arterial pressure signal, whichever came first. The recordings included moving the pressure transducer from the right ventricular cavity to the pulmonary artery and back, observing the very clear transitions in diastolic pressures and general pressure waveforms as the catheter entered the artery, and was withdrawn into the ventricle. The rats were then exsanguinated and the pulmonary circulation was flushed with 0.9% NaCl. The trachea, lungs and heart were removed as a whole from the thoracic cavity. The right and left lobes of the lung were weighed before being perfused with 10% NBF and immersed in 10% formalin. The lungs were stored in 10% formalin at room temperature. The heart was excised to measure the wet weights of the right ventricle (RV) and left ventricle including the septum (LV-S) as part of the Fulton index calculation.\nMean arterial blood pressure values and Fulton's index were calculated using the following formula as described above in Example 2. The study results are described in Table 4."}}, "note": "Counter-ions that a name gives are not always drawn. Like-named read-outs stand apart in the source and are kept apart here."}
{"molecule": "6-(4-(4-(2-methoxyphenyl)piperazin-1-yl)butoxy)-2H-benzo[b][1,4]oxazin-3(-4H)-one hydrochloride [Compound A]", "values": [{"measurement": "Ki", "setting": "[1]", "value": 0.3, "unit": "nM"}, {"measurement": "Ki", "setting": "[2]", "value": 0.65, "unit": "nM"}, {"measurement": "Ki", "setting": "[3]", "value": 118, "unit": "nM"}]}
{"molecule": "O=C1COc2ccc(OCCCCN3CCN(c4cccc(Cl)c4Cl)CC3)cc2N1", "note": "[Compound B, 6-(4-(4-(2,3-dichlorophenyl)piperazin-1-yl)butoxy)-2H-benzo[b][1,4]oxazin-3(4H)-one hydrochloride]", "values": [{"measurement": "Ki", "setting": "[3]; hydrochloride", "value": 2.50, "unit": "nM"}, {"measurement": "Ki", "setting": "[3]; listed as compound B, hydrochloride", "value": 2.5, "unit": "nM"}, {"measurement": "Ki", "setting": "[4]", "value": 0.19, "unit": "nM"}, {"measurement": "Ki", "setting": "[5]", "value": 51, "unit": "nM"}, {"measurement": "Ki", "setting": "[6]", "value": 2.7, "unit": "nM"}, {"measurement": "efficacy for PAH", "setting": "[7]; MCT induced PAH rat model, summary statement", "value": "demonstrated efficacy for PAH"}, {"measurement": "Body Weight gain", "setting": "[7]; 3 mg/kg bid oral gavage", "value": 22.9, "unit": "g"}, {"measurement": "Diastolic pulmonary pressure", "setting": "[7]; 3 mg/kg bid oral gavage", "value": 19.2, "unit": "mmHg"}, {"measurement": "Lung weight", "setting": "[7]; 3 mg/kg bid oral gavage", "value": 0.86, "unit": "%"}, {"measurement": "Mean pulmonary pressure", "setting": "[7]; 3 mg/kg bid oral gavage", "value": 32.0, "unit": "mmHg"}, {"measurement": "Oxygen saturation", "setting": "[7]; 3 mg/kg bid oral gavage", "value": 93.5, "unit": "%"}, {"measurement": "Respiratory resistance", "setting": "[7]; 3 mg/kg bid oral gavage", "value": 15.7}, {"measurement": "Right systolic ventricular pressure", "setting": "[7]; 3 mg/kg bid oral gavage", "value": 58.4, "unit": "mmHg"}, {"measurement": "Systolic pulmonary pressure", "setting": "[7]; 3 mg/kg bid oral gavage", "value": 57.7, "unit": "mmHg"}, {"measurement": "Body Weight gain", "setting": "[7]; 10 mg/kg bid oral gavage", "value": 23.1, "unit": "g"}, {"measurement": "Diastolic pulmonary pressure", "setting": "[7]; 10 mg/kg bid oral gavage", "value": 14.7, "unit": "mmHg"}, {"measurement": "Lung weight", "setting": "[7]; 10 mg/kg bid oral gavage", "value": 0.86, "unit": "%"}, {"measurement": "Mean pulmonary pressure", "setting": "[7]; 10 mg/kg bid oral gavage", "value": 24.1, "unit": "mmHg"}, {"measurement": "Oxygen saturation", "setting": "[7]; 10 mg/kg bid oral gavage", "value": 96.5, "unit": "%"}, {"measurement": "Respiratory resistance", "setting": "[7]; 10 mg/kg bid oral gavage", "value": 10.7}, {"measurement": "Right systolic ventricular pressure", "setting": "[7]; 10 mg/kg bid oral gavage", "value": 43.1, "unit": "mmHg"}, {"measurement": "Systolic pulmonary pressure", "setting": "[7]; 10 mg/kg bid oral gavage", "value": 43.0, "unit": "mmHg"}, {"measurement": "severity of PAH (right ventricular hypertrophy, pulmonary artery pressure, respiratory resistance)", "setting": "[7]; MCT, summary statement", "value": "decreasing the severity of PAH"}, {"measurement": "efficacy for PAH", "setting": "[8]; SuHx induced PAH rat model, summary statement", "value": "demonstrated efficacy for PAH"}, {"measurement": "Body Weight gain", "setting": "[8]; 10 mg/kg bid oral gavage", "value": 66.7, "unit": "g"}, {"measurement": "Diastolic pulmonary pressure", "setting": "[8]; 10 mg/kg bid oral gavage", "value": 15.3, "unit": "mmHg"}, {"measurement": "Lung weight", "setting": "[8]; 10 mg/kg bid oral gavage", "value": 0.65, "unit": "%"}, {"measurement": "Mean pulmonary pressure", "setting": "[8]; 10 mg/kg bid oral gavage", "value": 20.9, "unit": "mmHg"}, {"measurement": "Oxygen saturation", "setting": "[8]; 10 mg/kg bid oral gavage", "value": 95.9, "unit": "%"}, {"measurement": "Respiratory resistance", "setting": "[8]; 10 mg/kg bid oral gavage", "value": 12.4}, {"measurement": "Right systolic ventricular pressure", "setting": "[8]; 10 mg/kg bid oral gavage", "value": 32.8, "unit": "mmHg"}, {"measurement": "Systolic pulmonary pressure", "setting": "[8]; 10 mg/kg bid oral gavage", "value": 32.2, "unit": "mmHg"}, {"measurement": "Body Weight gain", "setting": "[8]; 20 mg/kg bid oral gavage", "value": 50.8, "unit": "g"}, {"measurement": "Diastolic pulmonary pressure", "setting": "[8]; 20 mg/kg bid oral gavage", "value": 14.7, "unit": "mmHg"}, {"measurement": "Lung weight", "setting": "[8]; 20 mg/kg bid oral gavage", "value": 0.62, "unit": "%"}, {"measurement": "Mean pulmonary pressure", "setting": "[8]; 20 mg/kg bid oral gavage", "value": 20.4, "unit": "mmHg"}, {"measurement": "Oxygen saturation", "setting": "[8]; 20 mg/kg bid oral gavage", "value": 96.9, "unit": "%"}, {"measurement": "Respiratory resistance", "setting": "[8]; 20 mg/kg bid oral gavage", "value": 11.1}, {"measurement": "Right systolic ventricular pressure", "setting": "[8]; 20 mg/kg bid oral gavage", "value": 34.2, "unit": "mmHg"}, {"measurement": "Systolic pulmonary pressure", "setting": "[8]; 20 mg/kg bid oral gavage", "value": 32.0, "unit": "mmHg"}, {"measurement": "severity of PAH (right ventricular hypertrophy, pulmonary artery pressure, respiratory resistance)", "setting": "[8]; SuHx, summary statement", "value": "decreasing the severity of PAH"}]}
